Measured values reported in patent US10562857B2 (AFASCI, Inc., priority 2015, dated 2020).
Entries after “also recorded” stand apart in the source; their conditions may differ. Like-named read-outs stand apart in the source and are kept apart here.

Key:
[1] = tested on: SNI mice; assay: Spared nerve injury (SNI) mice, von Frey monofilament test; type: in vivo, mouse; conditions: 30 mg/kg, 0.2 mL I.P.
From the text: FIG. 1B. Mechanical pain threshold assessment (using von Frey monofilament test) of the same cohort of SNI mice's left hindpaws.
(§1) T-channel specific inhibitors are not yet available for clinical treatment of neuropathic pain. The spared nerve injury (SNI) model, one of the reliable neuropathic pain models in mice and rats (Decosterd and Woolf, 2000), was used to assess the effects of the representative compounds.
(§2) Of the three branches of the sciatic nerve, the tibial and common peroneal nerves of the mice (C57BL/6, male, 25-30 g, Harlan) were cut and ligated, leaving the sural nerve intact. Pre-surgery baselines (100%) of the thermal and mechanical pain thresholds of the ipsilateral hind paws were measured using the Hargreaves thermal stimulator (Hargreaves et al., 1988) and von Frey hair monofilaments (up-down method, Chaplan et al., 1994), respectively. Mice underwent the SNI surgery on their left hind leg. Two weeks post-surgery, the thermal thresholds of each mouse were reassessed.
(§3) EXAMPLE-11, 14, 38, 62, or 113 (FIGS. 1A and B) and EXAMPLE-12, 16, 19, 39, or 44 (FIGS. 2A and B) were administered at 30 mg/kg (0.2 mL I.P.) in a vehicle (pure DMSO to dissolve the powder first and then add 0.5% Hydroxyl Propyl Cellulose, HPC, to contain 2% DMSO in injection solution). All drug solutions used the same vehicle, unless specified otherwise.

[2] = tested on: SNI mice; assay: Spared nerve injury (SNI) mice, Hargreaves thermal test; type: in vivo, mouse; conditions: 30 mg/kg, 0.2 mL I.P.
Experimental: FIG. 1A. Examples of compounds that mitigate neuropathic pain induced by Spared Nerve Injury (SNI) in mice. The withdrawal latencies of the mice's left hindpaws (injured site) in response to thermal stimulation (Hargreaves test). Each SNI mouse received either EXAMPLE (EX)-11, -14, -38, -62, or 113, or gabapentin, as benchmark (each 30 mg/kg, 0.2 mL I.P.), or vehicle (0.2 mL I.P. 2% DMSO in 0.5% Hydroxyl Propyl Cellulose, HPC). […] 40 seconds were cut off in order to prevent tissue damage (n=8 per group).
as §1, §2, §3

[3] = molecular target: T1, Cav3.2 channel (Homo sapiens, UniProt O95180); assay: Whole-cell patch clamp of T-type Cav3.2 channel expressed in HEK293 cells; type: cell-based; conditions: for IC50: Table 1, tested at at least 4 concentrations, read-out: IC50
T1 construct: expressed in transfected cells; host or cells: HEK-293, tetracycline inducible expression system (Invitrogen)
T1 sequence (O95180 whole entry): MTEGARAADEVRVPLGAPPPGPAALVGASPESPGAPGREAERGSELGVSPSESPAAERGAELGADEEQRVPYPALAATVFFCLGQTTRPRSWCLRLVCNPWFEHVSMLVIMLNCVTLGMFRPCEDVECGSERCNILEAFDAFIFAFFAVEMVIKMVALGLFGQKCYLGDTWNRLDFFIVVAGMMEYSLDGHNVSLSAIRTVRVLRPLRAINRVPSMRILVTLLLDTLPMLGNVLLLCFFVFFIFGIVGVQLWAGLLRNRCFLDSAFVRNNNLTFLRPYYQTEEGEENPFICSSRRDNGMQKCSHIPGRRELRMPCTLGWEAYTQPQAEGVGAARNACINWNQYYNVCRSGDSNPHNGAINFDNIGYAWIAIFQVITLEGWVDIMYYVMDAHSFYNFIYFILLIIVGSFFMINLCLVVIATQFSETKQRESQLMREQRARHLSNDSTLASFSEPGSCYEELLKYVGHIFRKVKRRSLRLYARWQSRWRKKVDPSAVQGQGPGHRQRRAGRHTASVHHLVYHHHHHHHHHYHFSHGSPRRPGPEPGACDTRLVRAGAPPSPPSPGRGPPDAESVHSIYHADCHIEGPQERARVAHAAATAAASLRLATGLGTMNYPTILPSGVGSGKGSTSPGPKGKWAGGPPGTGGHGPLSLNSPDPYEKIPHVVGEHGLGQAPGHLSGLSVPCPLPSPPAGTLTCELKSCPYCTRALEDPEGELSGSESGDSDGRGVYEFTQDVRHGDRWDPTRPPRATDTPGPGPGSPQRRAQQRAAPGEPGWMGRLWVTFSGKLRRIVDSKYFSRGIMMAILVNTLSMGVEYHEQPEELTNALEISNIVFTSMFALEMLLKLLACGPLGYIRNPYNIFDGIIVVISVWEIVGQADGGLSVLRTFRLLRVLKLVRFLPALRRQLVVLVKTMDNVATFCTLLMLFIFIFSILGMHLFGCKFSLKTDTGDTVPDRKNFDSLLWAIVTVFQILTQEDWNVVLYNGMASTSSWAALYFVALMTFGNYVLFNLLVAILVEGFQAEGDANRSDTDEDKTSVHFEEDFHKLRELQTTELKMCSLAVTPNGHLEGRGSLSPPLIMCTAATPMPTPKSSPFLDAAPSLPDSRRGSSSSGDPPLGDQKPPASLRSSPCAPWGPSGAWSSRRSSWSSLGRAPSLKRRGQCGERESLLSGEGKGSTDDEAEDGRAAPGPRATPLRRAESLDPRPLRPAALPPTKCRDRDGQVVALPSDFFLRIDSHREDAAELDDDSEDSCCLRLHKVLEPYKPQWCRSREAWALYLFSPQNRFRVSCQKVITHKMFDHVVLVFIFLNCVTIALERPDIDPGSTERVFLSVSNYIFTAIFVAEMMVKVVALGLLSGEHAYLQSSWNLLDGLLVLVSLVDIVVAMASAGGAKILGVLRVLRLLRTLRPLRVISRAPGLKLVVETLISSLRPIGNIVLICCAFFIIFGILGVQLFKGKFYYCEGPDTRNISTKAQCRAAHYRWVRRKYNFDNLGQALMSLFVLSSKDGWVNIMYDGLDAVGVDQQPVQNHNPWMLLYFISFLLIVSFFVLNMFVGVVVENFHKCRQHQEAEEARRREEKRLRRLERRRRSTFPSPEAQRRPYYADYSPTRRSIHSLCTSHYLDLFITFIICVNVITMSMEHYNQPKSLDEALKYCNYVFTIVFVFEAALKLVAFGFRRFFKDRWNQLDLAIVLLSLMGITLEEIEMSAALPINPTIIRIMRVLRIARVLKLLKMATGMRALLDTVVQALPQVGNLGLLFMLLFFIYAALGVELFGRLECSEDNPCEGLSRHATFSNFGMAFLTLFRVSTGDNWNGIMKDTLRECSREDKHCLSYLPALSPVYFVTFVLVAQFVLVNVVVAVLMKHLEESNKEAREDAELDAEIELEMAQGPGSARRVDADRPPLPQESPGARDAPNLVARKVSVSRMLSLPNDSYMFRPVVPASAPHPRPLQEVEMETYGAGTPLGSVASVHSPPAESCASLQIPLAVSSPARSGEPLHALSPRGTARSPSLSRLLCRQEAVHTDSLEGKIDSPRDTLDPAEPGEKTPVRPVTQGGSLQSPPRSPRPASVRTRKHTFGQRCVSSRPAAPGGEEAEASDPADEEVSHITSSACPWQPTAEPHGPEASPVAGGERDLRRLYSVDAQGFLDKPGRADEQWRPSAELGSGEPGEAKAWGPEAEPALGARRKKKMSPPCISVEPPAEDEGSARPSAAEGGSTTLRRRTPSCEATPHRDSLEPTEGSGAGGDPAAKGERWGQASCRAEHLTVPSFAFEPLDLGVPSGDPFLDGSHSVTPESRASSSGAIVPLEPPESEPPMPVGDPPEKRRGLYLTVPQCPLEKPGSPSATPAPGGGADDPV

[4] = HEK293, Table 1 primary screening
[5] = HEK293, Table 1 primary screening, 3 μM as indicated in cell, read-out: % inhibition at 3 μM

Structure (SMILES)	IC50 [3] [nM]	inhibition at 1 µM [3, 4] [%]	other results
O=C(NC1CCC12CCN(CCc1ccccc1)CC2)c1ccccc1 (stereo not drawn) [Example 62]		68	mechanical pain threshold of left hindpaw (allodynia) [1]: produced analgesic effects; also recorded: reduced allodynia; left hindpaw withdrawal latency to thermal stimulation (hyperalgesia) [2]: produced analgesic effects; also recorded: reduced hyperalgesia
O=C(NC1CC12CCN(CC(c1ccccc1)c1ccccc1)CC2)c1cc(Cl)cc(Cl)c1 (stereo not drawn) [Example 39, 3,5-Dichloro-N-(6-(2,2-diphenylethyl)-6-azaspiro[2.5]octan-1-yl)benzamide]	60		mechanical pain threshold of left hindpaw (allodynia) [1]: produced analgesic effects; also recorded: reduced allodynia; left hindpaw withdrawal latency to thermal stimulation (hyperalgesia) [2]: produced analgesic effects; also recorded: reduced hyperalgesia
O=C(CCc1cccc(Cl)c1)Nc1nnc(-c2ccccc2)o1 [Example 119, 3-(3-Chlorophenyl)-N-(5-phenyl-1,3,4-oxadiazol-2-yl)propanamide]			inhibition at 3 µM [3, 5]: 5%
CC(C)(C)NC(=O)CN1CCC2(CC1)CC2NC(=O)c1ccccc1 (stereo not drawn) [Example 4, N-(6-(2-(tert-Butylamino)-2-oxoethyl)-6-azaspiro[2.5]octan-1-yl)benzamide]			inhibition at 3 µM [3, 5]: 24.7%
O=S(=O)(NC1CC12CCN(CCc1ccccc1)CC2)c1cc(Cl)cc(Cl)c1 (stereo not drawn) [Example 52, 3,5-Dichloro-N-(6-phenethyl-6-azaspiro[2.5]octan-1-yl)benzenesulfonamide]		29	
CC(C)CN1CCC2(CC1)CC2NC(=O)c1ccccc1 (stereo not drawn) [Example 1, N-(6-Isobutyl-6-azaspiro[2.5]octan-1-yl)benzamide]			inhibition at 3 µM ([3]; HEK293, read-out: % inhibition at 3 μM): 15.3%
O=C(CCc1ccc(Cl)c(Cl)c1)Nc1nnc(-c2ccc(Cl)s2)o1 [Example 120, N-(5-(5-Chlorothiophen-2-yl)-1,3,4-oxadiazol-2-yl)-3-(3,4-dichlorophenyl)propanamide]		9.2	
O=C(CN1CCC(CNC(=O)c2ccccc2)CC1)Nc1ccccc1 [Example 101, N-((1-(2-Oxo-2-(phenylamino)ethyl)piperidin-4-yl)methyl)benzamide]		44	
COc1cccc(C(=O)NCC2(C)CCN(CC(=O)NC(C)(C)C)CC2)c1 [Example 108, N-((1-(2-(tert-butylamino)-2-oxoethyl)-4-methylpiperidin-4-yl)methyl)-3-methoxybenzamide]		53	
O=C(Nc1nnc(-c2ccccc2F)o1)c1cnccn1 [Example 127, N-(5-(2-Fluorophenyl)-1,3,4-oxadiazol-2-yl)pyrazine-2-carboxamide]		8.5	
O=C(NC1CC12CCN(Cc1ccccc1)CC2)c1ccccc1 (stereo not drawn) [Example 5, N-(6-Benzyl-6-azaspiro[2.5]octan-1-yl)benzamide]			inhibition at 3 µM [3, 5]: 44%
Cc1cc(C(=O)Nc2nnc(-c3ccccc3)o2)no1 [Example 122, 5-Methyl-N-(5-phenyl-1,3,4-oxadiazol-2-yl)isoxazole-3-carboxamide]		14.9	
CC(C)(C)NC(=O)CN1CCC2(CC1)CC2CNc1cc(Cl)cc(Cl)c1 (stereo not drawn) [Example 93]	100		
CC(C)CN1CCC2(CC1)CC2NC(=O)c1ccc(Cl)c(Cl)c1 (stereo not drawn) [Example 6, 3,4-Dichloro-N-(6-isobutyl-6-azaspiro[2.5]octan-1-yl)benzamide]			inhibition at 3 µM [3, 5]: 29.1%
CC(C)(C)NC(=O)CN1CCC2(CC1)CC2NS(=O)(=O)c1cc(Cl)cc(Cl)c1 (stereo not drawn) [Example 53, N-(tert-Butyl)-2-(1-((3,5-dichlorophenyl)sulfonamido)-6-azaspiro[2.5]octan-6-yl)acetamide]		25	
CC(C)(C)NC(=O)CN1CCC2(CC1)CC2NC(=O)C12CC3CC(CC(C3)C1)C2 (stereo not drawn) [Example 143, N-(6-(2-(tert-Butylamino)-2-oxoethyl)-6-azaspiro[2.5]octan-1-yl)adamantane-1-carboxamide]	290		
O=C(CN1CCC2(CC1)CC2NC(=O)c1cc(F)cc(Cl)c1)c1ccc(F)cc1 (single isomer, unassigned) [Example 138, (R)-3-Chloro-5-fluoro-N-(6-(2-(4-fluorophenyl)-2-oxoethyl)-6-azaspiro[2.5]octan-1-yl)benzamide or (S)-3-Chloro-5-fluoro-N-(6-(2-(4-fluorophenyl)-2-oxoethyl)-6-azaspiro[2.5]octan-1-yl)benzamide]	180		
O=C(CN1CCC2(CC1)CC2NC(=O)c1cc(F)cc(Cl)c1)c1ccc(C(F)(F)F)cc1 (single isomer, unassigned) [Example 136, (R)-3-Chloro-5-fluoro-N-(6-(2-oxo-2-(4-(trifluoromethyl)phenyl)ethyl)-6-azaspiro[2.5]octan-1-yl)benzamide or (S)-3-Chloro-5-fluoro-N-(6-(2-oxo-2-(4-(trifluoromethyl)phenyl)ethyl)-6-azaspiro[2.5]octan-1-yl) benzamide]	260		

Second part, led by results:

IC50 [3] [nM]	inhibition at 1 µM [3, 4] [%]	Structure (SMILES)	other results
30		CC(C)(C)NC(=O)CN1CCC2(CC1)CC2NC(=O)c1cc(Cl)cc(Cl)c1 (stereo not drawn) [Example 14, N-(6-(2-(tert-Butylamino)-2-oxoethyl)-6-azaspiro[2.5]octan-1-yl)-3,5-dichlorobenzamide]	mechanical pain threshold of left hindpaw (allodynia) [1]: produced analgesic effects; also recorded: reduced allodynia; left hindpaw withdrawal latency to thermal stimulation (hyperalgesia) [2]: produced analgesic effects; also recorded: reduced hyperalgesia
50		CC(C)(C)CCN1CCC2(CC1)CC2NC(=O)c1cc(Cl)cc(Cl)c1 (stereo not drawn) [Example 12, 3,5-Dichloro-N-(6-(3,3-dimethylbutyl)-6-azaspiro[2.5]octan-1-yl)benzamide]	mechanical pain threshold of left hindpaw (allodynia) [1]: produced analgesic effects; also recorded: reduced allodynia; left hindpaw withdrawal latency to thermal stimulation (hyperalgesia) [2]: produced analgesic effects; also recorded: reduced hyperalgesia
30		CC(C)(C)CCN1CCC2(CC1)CC2NC(=O)c1cc(C(F)(F)F)cc(C(F)(F)F)c1 (stereo not drawn) [Example 19, N-(6-(3,3-Dimethylbutyl)-6-azaspiro[2.5]octan-1-yl)-3,5-bis(trifluoromethyl)benzamide]	mechanical pain threshold of left hindpaw (allodynia) [1]: produced analgesic effects; also recorded: reduced allodynia; left hindpaw withdrawal latency to thermal stimulation (hyperalgesia) [2]: produced analgesic effects; also recorded: reduced hyperalgesia
	64	CC(C)(C)CCN1CCC2(CC1)CC2NC(=O)c1cncc(C(F)(F)F)c1 (stereo not drawn) [Example 26, N-(6-(3,3-dimethylbutyl)-6-azaspiro[2.5]octan-1-yl)-5-(trifluoromethyl)nicotinamide]	
290		Cc1cc(C)cc(C(=O)NC2CC23CCN(CCC(C)(C)C)CC3)c1 (stereo not drawn) [Example 32, N-(6-(3,3-Dimethylbutyl)-6-azaspiro[2.5]octan-1-yl)-3,5-dimethylbenzamide]	
	37	CC(C)(C)CCN1CCC2(CC1)CC2NC(=O)c1ccccc1Cl (stereo not drawn) [Example 20, 2-Chloro-N-(6-(3,3-dimethylbutyl)-6-azaspiro[2.5]octan-1-yl)benzamide]	
160		CC(C)(C)C(=O)CN1CCC2(CC1)CC2NC(=O)c1cc(Cl)cc(Cl)c1 (stereo not drawn) [Example 49, 3,5-Dichloro-N-(6-(3,3-dimethyl-2-oxobutyl)-6-azaspiro[2.5]octan-1-yl)benzamide]	
60		CC(C)(C)CCN1CCC2(CC1)CC2NC(=O)c1cc(Br)cc(Br)c1 (stereo not drawn) [Example 25, 3,5-Dibromo-N-(6-(3,3-dimethylbutyl)-6-azaspiro[2.5]octan-1-yl)benzamide]	
40		O=C(NC1CC12CCN(CCCc1ccccc1)CC2)c1cc(Cl)cc(Cl)c1 (stereo not drawn) [Example 45, 3,5-Dichloro-N-(6-(3-phenylpropyl)-6-azaspiro[2.5]octan-1-yl)benzamide]	
160		O=C(NC1CC12CCN(CCc1ccc(Cl)cc1)CC2)c1cc(Cl)cc(Cl)c1 (stereo not drawn) [Example 41, 3,5-Dichloro-N-(6-(4-chlorophenethyl)-6-azaspiro[2.5]octan-1-yl)benzamide]	
80		O=C(NC1CC12CCN(Cc1ccccc1)CC2)c1cc(Cl)cc(Cl)c1 (stereo not drawn) [Example 15, N-(6-Benzyl-6-azaspiro[2.5]octan-1-yl)-3,5-dichlorobenzamide]	
	50	CC(C)(C)CCN1CCC2(CC1)CC2NC(=O)c1ccc(Cl)cc1 (stereo not drawn) [Example 22, 4-Chloro-N-(6-(3,3-dimethylbutyl)-6-azaspiro[2.5]octan-1-yl)benzamide]	
220		CC(C)(C)C(O)CN1CCC2(CC1)CC2NC(=O)c1cc(Cl)cc(Cl)c1 (stereo not drawn) [Example 58, 3,5-Dichloro-N-(6-(2-hydroxy-3,3-dimethylbutyl)-6-azaspiro[2.5]octan-1-yl)benzamide]	
90		CC(C)(C)CCN1CCC2(CC1)CC2CNC(=O)c1cc(Cl)cc(Cl)c1 (stereo not drawn) [Example 88, 3,5-Dichloro-N-((6-(3,3-dimethylbutyl)-6-azaspiro[2.5]octan-1-yl)methyl)benzamide]	
